Experimental data: patent US10106582B2, “Complex-formation-modulating agents and uses therefor” (Factor Therapeutics Limited, priority 2012, dated 2018)

Tested on: MCF-7 cells
Test: Transwell migration assay, IGF-I+IGFBP-5+VN trimeric complex-stimulated MCF-7 cell migration
Assay type: cell-based, human
From the text: Two motifs (motifs 1 and 8) within native VN, deemed potentially significant in supporting the binding of IGF-II, IGFBP-3 and IGFBP-5, were identified as outlined in the previous section. After preliminary in silico analyses motif 8 (J4-7) was deemed as potentially the most significant region within native VN supporting binding interactions of all the three IGF-II, IGFBP-3 and IGFBP-5 proteins and was chosen for the initial analyses. The VN-peptide covering the sequences of motif 8 was designed such that it covered all the 3AA frameshift sets that contributed to a positive spot within the motif 8 (see, FIG. 3 and Table 7). The sequence of this peptide is RVNLRTRRVDTVDPPYPRS [SEQ ID NO:100] and is designated P8. […] The sequence of that peptide is […] [SEQ ID NO:86] and is designated P7. […] The functional effects of these peptides on IGF-I:IGFBP:VN-stimulated breast cancer cell migration were investigated using Transwell® assays. Transwells® were pre-bound with VN, either alone or in combination with IGF-I and IGFBP-5 (TRI). Treatment with TRI supplemented with increasing concentrations of peptides P7 and/or P8 were assayed. TRI supplemented with Anlg or Neg peptide were included as positive and negative controls of migration inhibition, respectively. All unbound proteins were removed with washing and MCF-7 cell migration was assessed over 15 hours.
The Transwell® inserts were prepared by pre-binding the lower chamber and the under-surface of the 8-μm pore membranes with proteins as described below. For all 2D functional assays described throughout this study, including Transwell® the treatments for the pre-binding steps were VN, IGF-I+IGFBP-5+VN (TRI) complex, either alone or in combination with respective controls or VN-peptides. The concentrations of the proteins added into the culture wells were VN, 1 μg/mL; IGF-I, 30 ng/mL and IGFBP-5, 90 ng/mL, unless otherwise stated. The concentration of VN-peptides used are indicated where appropriate.
Optimal IGF-I:IGFBP-5:VN-mediated attachment and migration of MCF-7 cells in multiwell plates is obtained by pre-binding human native-IGF-I and/or IGFBP-5 and VN at concentrations of 30 ng/mL, 90 ng/mL and 1 μg/mL per well, respectively, to the lower chambers and under surfaces of Transwells®. […] For Anlg, concentrations varying from 30 ng/mL to 300 ng/mL were used.
Transwells® were prepared by pre-binding the test proteins, either alone or in combinations, to the lower chambers and under-surfaces of Transwells® following procedures previously described (Kricker et al., 2003). Briefly, 0.5 mL DMEM/F12 serum-free phenol-red free medium (SFM) containing 1 μg/mL VN was added to the lower chambers of 24-well, 8-μm pore Transwell® plates and incubated for 3 hours at 37° C. Unbound VN was removed and the wells were washed twice with 0.5 mL SFM+0.5% BSA following which 0.5 mL of SFM+0.5% BSA was placed in the lower chamber to block surfaces with no protein bound. To pre-bind growth factors, 0.5 mL SFM+0.05% BSA containing native IGF-I (30 ng/mL), IGFBP-5 (90 ng/mL) or Anlg, either alone or in combination, were added to the lower chambers of the Transwells® and incubated overnight at 4° C. The solution containing unbound growth factors was removed and the wells were washed twice with SFM+0.05% BSA and replaced with 0.5 mL of SFM+0.05% BSA. Throughout the pre-binding procedure care was taken to keep the upper surface of the Transwell® inserts dry.
Migration assays were essentially performed following protocols described previously in Leavesley et al 1993, J Cell Biol. 121:163-70. The cells in culture flasks were split 1:1, 24 hours prior to performing the migration assay. The cells were serum-starved for 4 hours and a cell suspension containing 6×10^4 cells in 200 μL SFM+0.05% BSA was seeded onto the upper-surface of the pre-coated Transwell® inserts and incubated for 15 hours at 37° C., 5% CO2 (refer to above for proteins pre-bound and concentrations used). […]

“KTYLFKGSQYWRFEDG [Neg, reference compound]” was tested, and the MCF-7 cell migration (TRI supplemented with non-binding peptide, concentration not given, 15 hours) was 276±24 % of VN and the “Effect on TRI-stimulated MCF-7 cell migration” value (non-binding peptide supplemented into TRI, concentration not given) was “did not affect”.

For “LFSSEESNLGANNYDDYRMDWL (listed as Homo sapiens) [Peptide P7, human VN motif 7 mimic]”, the MCF-7 cell migration (TRI supplemented with peptide at 3× molar concentration of IGFBP-5 (43 ng/mL P7, 38 ng/mL P8), 15 hours) was 94.7±0.2 % of VN and the MCF-7 cell migration (TRI supplemented with peptide at 9× molar concentration of IGFBP-5, 15 hours) was 146±14 % of VN.
